In patent US20050234122A1, “Prevention of and countermeasures against viral infection” (LIFE SCIENCE INSTITUTE, LTD., priority 2004, published 2005):

Assays:
[1] = rats suffering from artificial peritonitis; cited from earlier work
immune function = settings: cited from earlier work
[2] = Activity of vitamin C in drip infusion depending on pH; assay type: physicochemical; settings: drip infusion with a pH of 7.0 or greater
[3] = Oxidation of vitamin C dissolved in a juice; assay type: physicochemical; settings: within about 90 minutes
[4] = Viscosity of mucopolysaccharides after adding vitamin C (Oswald viscometer); settings: vitamin C added to mucopolysaccharides

SMILES | survivorship [1] | decreased weight of the thymus gland and decreased T-cells' capability of blast transformation (immune function; rat suffering from fracture) | T-cells' capability of blast transformation (immune function; rats) | weight of the thymus gland (immune function; rats) | activity of vitamin C [2] | vitamin C that becomes an oxidized derivative [3] [%] | viscosity of the mixture [4]
N=C(N)NCCC[C@H](N)C(=O)O [arginine] | remarkably increased survivorship | recovered | increases | increases | – | – | –
O=C1O[C@H]([C@@H](O)CO)C(O)=C1O [vitamin C, ascorbic acid] | – | – | – | – | decreases | 50 | gradually decreases
